Measurements taken from patent US12171229B2, “Heteroaryl-triazole and heteroaryl-tetrazole compounds as pesticides” (BAYER AKTIENGESELLSCHAFT, priority 2018, dated 2024).

Experiments:
Type in all cases: in vivo
Boophilus microplus = Boophilus microplus injection test; details: 20 μg/animal injected into the abdomen, adult engorged female ticks, egg deposition after 7 days; for pest or weed control at 0.02 mg: Rhipicephalus microplus, 168 h, read-out: efficacy (infertile eggs)
Description: Boophilus Microplus—Injection Test Solvent: dimethyl sulfoxide To produce a suitable preparation of active compound, 10 mg of active compound are dissolved in 0.5 ml solvent, and the concentrate is diluted with solvent to the desired concentration. Five adult engorged female ticks (Boophilus microplus) are injected with 1 μl compound solution into the abdomen. The ticks are transferred into replica plates and incubated in a climate chamber. After 7 days egg deposition of fertile eggs is monitored. Eggs where fertility is not visible are stored in a climate chamber till hatching after about 42 days. An efficacy of 100% means all eggs are infertile; 0% means all eggs are fertile.

Diabrotica balteata = Diabrotica balteata spray test; details: after 7 days, larvae on wheat seeds; for pest or weed control at 160 µg/disc, 500 g/ha / pest or weed control at 80 µg/disc, 250 g/ha: Diabrotica balteata, in Triticum aestivum, 168 h, read-out: efficacy (seedlings grown up); for pest or weed control at 80 µg/disc, 250 g/ha: 80 μg/well (=250 g/ha)
Description: Diabrotica balteata—Spray Test [table] To produce a suitable preparation of active compound, 1 part by weight of active compound is mixed with the stated amount of solvent, and the concentrate is diluted with water, containing an emulsifier concentration of 1000 ppm, to the desired concentration. Further test concentrations are prepared by dilution with emulsifier containing water. Soaked wheat seeds (Triticum aestivum) are placed in a multiple well plate filled with agar and some water and are incubated for 1 day to germinate (5 seeds per well). The germinated wheat seeds are sprayed with a test solution containing the desired concentration of the active ingredient. Afterwards each unit is infected with 10-20 larvae of the banded cucumber beetle (Diabrotica balteata). After 7 days efficacy in % is determined. 100% means all the seedlings have grown up like in the untreated, uninfected control; 0% means none of the seedlings have grown.

Spodoptera frugiperda = Spodoptera frugiperda spray test; details: 168 h, after 7 days, larvae on maize leaf sections
Description: Spodoptera frugiperda—Spray Test
(§1) To produce a suitable preparation of active compound, 1 part by weight of active compound is mixed with the stated amount of solvents and is diluted with water, containing an emulsifier concentration of 1000 ppm, to the desired concentration. Further test concentrations are prepared by dilution with emulsifier containing water.
Maize (Zea mays) leaf sections are sprayed with a preparation of the active ingredient of the desired concentration. Once dry, the leaf sections are infested with fall armyworm larvae (Spodoptera frugiperda).
After 7 days mortality in % is determined. 100% means all caterpillars have been killed and 0% means none of the caterpillars have been killed.

Ctenocephalides felis = Ctenocephalides felis oral test; details: 48 h, 100 ppm in cattle blood, after 2 days, adult unfed cat fleas
Description: Ctenocephalides Felis—Oral Test
Solvent: dimethyl sulfoxide
To produce a suitable preparation of active compound, 10 mg of active compound are dissolved in 0.5 ml solvent, and the concentrate is diluted with cattle blood to the desired concentration.
Approximately 20 adult unfed cat fleas (Ctenocephalides felis) are placed in flea chambers. The blood chamber, sealed with parafilm on the bottom, are filled with cattle blood supplied with compound solution and placed on the gauze covered top of the flea chamber, so that the fleas are able to suck the blood. The blood chamber is heated to 37° C. whereas the flea chamber is kept at room temperature.
After 2 days mortality in % is determined. 100% means all the fleas have been killed; 0% means none of the fleas have been killed.

Nezara viridula = Nezara viridula spray test; details: 96 h, 500 g/ha, after 4 days, larvae on barley plants
Description: Nezara viridula—Spray Test
as §1, with “solvent,” for “solvents”, “and the concentrate” for “and”
Barley plants (Hordeum vulgare) infested with larvae of the southern green stink bug (Nezara viridula) are sprayed with a test solution containing the desired concentration of the active ingredient.
After 4 days mortality in % is determined. 100% means all the stink bugs have been killed: 0% means none of the stink bugs have been killed.

| SMILES | pest or weed control at 0.02 mg (Boophilus microplus) [%] | pest or weed control at 160 µg/disc, 500 g/ha (Diabrotica balteata; 160 μg/well (=500 g/ha)) [%] | mortality at 100 ppm (Ctenocephalides felis) [%] | pest or weed control at 80 µg/disc, 250 g/ha (Diabrotica balteata) [%] | also measured |
| --- | --- | --- | --- | --- | --- |
| C[C@H](NC(=O)c1cc(Cl)cc(C(F)(F)F)c1)c1ncnn1-c1cccc(S(C)(=O)=O)n1 [Example I-064] | 80 |  |  |  |  |
| C[C@H](NC(=O)c1cc(Cl)cc(C(F)(F)F)c1)c1ncnn1-c1nc(-c2ccccc2F)cs1 [Example I-043] |  | 100 |  |  |  |
| COC(=O)c1ccc(-n2ncnc2[C@H](C)NC(=O)c2cc(Cl)cc(C(F)(F)F)c2)nc1 [Example I-031] | 100 | 100 |  |  |  |
| C[C@H](NC(=O)c1cc(Cl)cc(Cl)c1)c1ncnn1-c1nccs1 [Example I-108] |  | 100 |  |  | mortality at 500 g/ha (Spodoptera frugiperda): 83% |
| C[C@H](NC(=O)c1cc(Cl)cc(C(F)(F)F)c1)c1ncnn1-c1cccc(C#N)n1 [Example I-055] | 100 |  |  |  |  |
| C[C@H](NC(=O)c1cc(Cl)cc(C(F)(F)F)c1)c1ncnn1-c1cccc(OCC(F)(F)F)n1 [Example I-059] |  | 100 |  |  |  |
| COc1cc(C(=O)N[C@@H](C)c2ncnn2-c2ccc(C#N)cn2)cc(C(F)(F)F)c1 [Example I-092] |  | 100 | 100 | 100 | mortality at 500 g/ha (Nezara viridula): 90%; mortality at 100 g/ha (Spodoptera frugiperda): 100%; mortality at 500 g/ha (Spodoptera frugiperda): 100% |
| C[C@H](NC(=O)c1cc(Cl)cc(OC(F)(F)F)c1)c1ncnn1-c1ccc(NC(=O)C2(Cl)CC2)cn1 [Example I-113] |  | 80 |  |  | mortality at 500 g/ha (Nezara viridula): 100%; mortality at 100 g/ha (Spodoptera frugiperda): 80%; mortality at 500 g/ha (Spodoptera frugiperda): 100% |
| C[C@H](NC(=O)c1cc(Cl)cc(C(F)(F)F)c1)c1ncnn1C1CCS(=O)(=O)C1 (single isomer, unassigned) [Example I-025] |  |  |  |  | efficacy (infertile eggs) (Boophilus microplus): 100%; efficacy (seedlings grown up) (Diabrotica balteata; 160 μg/well (=500 g/ha)): 80% |
| CC[C@H](NC(=O)c1cc(C(F)(F)F)cc(C(F)(F)F)c1)c1ncnn1-c1ccc(C#N)cn1 [Example I-068] | 100 | 100 |  | 100 | mortality at 100 g/ha (Spodoptera frugiperda): 100%; mortality at 500 g/ha (Spodoptera frugiperda): 100% |
| CC[C@H](NC(=O)c1cc(Cl)cc(OC(F)(F)F)c1)c1ncnn1-c1ccc(NC(C)=O)cn1 [Example I-095] |  |  | 100 |  |  |
| COc1cc(C(=O)N[C@@H](C)c2ncnn2-c2ncc(F)cc2F)cc(C(F)(F)F)c1 [Example I-102] |  |  |  | 100 | mortality at 500 g/ha (Nezara viridula): 100% |
| C[C@H](NC(=O)c1cc(Cl)cc(C(F)(F)F)c1)c1ncnn1-c1nc2ccccc2o1 [Example I-057] | 80 | 80 | 90 | 100 |  |
| C[C@H](NC(=O)c1cc(Cl)cc(C(F)(F)F)c1)c1ncnn1-c1cn(C)nc1C(F)(F)F [Example I-044] | 100 | 80 | 100 | 100 |  |
| C[C@H](NC(=O)c1cc(F)cc(C(F)(F)F)c1)c1ncnn1-c1nc2ccccc2o1 [Example I-058] | 100 |  | 100 |  |  |
